For assay [1], the system named is allergic asthma model of mice caused by ovalbumin sensitization. The assay is described as follows: BAL inflammatory cell numbers, allergic asthma model caused by ovalbumin sensitization. Format: in vivo, BALB/c female mice. The following applies: HTHQ 20 and 40 mg/kg/day oral, days 18 to 23; day 25; compared to OVA group. As for the experimental part: The efficacy of the hydroquinone derivative represented by the general formula (1) described above of the present invention on asthma was studied using an allergic asthma model of mice caused by ovalbumin sensitization.
6 week old BALB/c female mice were purchased and the mice were divided into 5 groups with 5 animals per group shown in Table 3 below after habituation breeding of about 2 weeks.
The test was conducted on the schedule of sensitization, causing diseases and administration of test materials shown in FIG. 12. “IP” in FIG. 12 refers to ovalbumin sensitization treatment by the intraperitoneal administration of ovalbumin/aluminum hydroxide, and “IH” refers to inhalation exposure treatment of ovalbumin, and “PO” refers to the administration of the test materials. […]
All mice were euthanized by intraperitoneal injection of pentobarbital (Hanrimu pharmaceutical, South Korea) at 50 mg/kg and the bronchi were excised on day 25 of the test. […] After preparing slide samples from 100 μL of BAL cell fluid using Cytospin (4° C., 1000 rpm×5 min), the cell numbers of inflammatory cells (eosinophils, macrophages, lymphocytes and neutrophils) present in the BAL fluid were counted using a Diff-Quik stain kit.

Assay [2] relates to sputum excretion. As to the kind of experiment: Sputum excretion action (phenol red excretion from trachea sections, method of Engler et al.). Format: in vivo, male ICR mice. The note with it: relative to negative control. As for the experimental part:
The hydroquinone derivative of the present invention was orally administered to 8 week old male ICR mice in a single dose, and the sputum excretion action was evaluated according to the method of Engler et al. (Engler H, Szelenyi I, J.Pharmacol. Moth. 11, 151-157, 1984).
Specifically, the test was conducted as follows. The test material was orally administered to the mice in the control group and the test groups, i.e., an aqueous solution of 2% gum arabic was administered to the mice in the negative control group, and 2,3,5-trimethylhydroquinone-1-hexyl ether (HTHQ), the test substance, was orally administered to the mice in the HTHQ-administered groups at 100 mg/kg body weight, 200 mg/kg body weight and 400 mg/kg body weight, respectively. Ambroxol (a product from Sigma-Aldrich) was orally administered to the mice in the ambroxol administered group at 250 mg/kg body weight. Here, ambroxol is a substance having expectoration action and has been selected as a positive control substance. 30 minutes after the oral administration of the test material, saline in which phenol red (a product from Sigma-Aldrich) was dissolved at a concentration of 0.05 g/mL was intraperitoneally administered at 15 mL/kg. Then, 30 minutes after the administration of phenol red, the mice were euthanized by inhalation of carbon dioxide, and the tracheae were extirpated. Given sites of the extirpated tracheae were cut into sections of fixed size to obtain trachea sections. The obtained trachea sections were added to centrifugation tubes, and 1 mL of saline was added there, and the mixture was sonicated using a ultrasonic washing machine for 15 minutes. After the centrifugation of 5 minutes at 10000 rpm, 0.5 mL of a upper layer solution was dispensed to the centrifugation tubes and 0.05 mL of 1 N sodium hydroxide was added to the tubes. After stirring with a vortex mixer, 0.2 mL of a sample was dispensed to a 96 well plate, and absorbance was measured at 546 nm using a micro plate reader (a product from BioTek Instruments, Inc). The amounts of phenol red excreted from the trachea sections of the mice in the control group and test groups were calculated by extrapolating the measured absorbance to the standard curve based on the absorbance of phenol red reference standard ([…], 2.3 and 1.2 ng/mL). The amounts of phenol red excreted from the trachea sections were substituted in the following formula to calculate the sputum excretion ability of the test material. The formula to calculate the sputum excretion ability is as follows: “sputum excretion ability(%)={(A/B)−1}×100” wherein A is the amounts of phenol red of the test material administered groups (an average) and B is the amount of phenol red of the negative control group (an average).

As for `CCCCCCOc1cc(C)c(O)c(C)c1C` [HTHQ, 2,3,5-trimethylhydroquinone-1-hexyl ether], the “inflammatory cell numbers in BAL fluid (eosinophils, macrophages, total)” value in assay [1] is on record as “significantly reduced in an HTHQ dose-dependent manner”. Further, the sputum excretion ability in assay [2] (HTHQ 100 mg/kg oral single dose) was found to be 24.6%; in assay [2] (HTHQ 200 mg/kg oral single dose, significant increase) it was 30.0%; in assay [2] (HTHQ 400 mg/kg oral single dose, significant increase), 36.2%.

The record behind these values is patent US20180049996A1, “THERAPEUTIC AGENT FOR CHRONIC RESPIRATORY DISEASE AND COMPOSITION FOR INHIBITING CARDIAC FIBROSIS” (NIPPON HYPOX LABORATORIES INCORPORATED, priority 2015, published 2018).
